{"source": "patent US20050003007A1", "about": "“Method of sterilization of polymeric microparticles” (priority 2003, published 2005)", "tested_on": "retinitis pigmentosa", "experiment": "Subconjunctival injection of tazarotene microsphere suspension into a patient suffering from retinitis pigmentosa", "type": "in vivo", "settings": "tazarotene 1 mg in poly(lactide-co-glycolide) microsphere suspension, for the duration of treatment", "experimental": "A dose of tazarotene (1 mg) contained in the poly(lactide-co-glycolide) microsphere suspension of Example containing 1 is injected subconjunctivally into a patient suffering from retinitis pigmentosa."}
{"smiles": "CCOC(=O)c1ccc(C#Cc2ccc3c(c2)C(C)(C)CCS3)nc1", "note": "[tazarotene]", "values": [{"measurement": "vision", "value": "Maintenance of vision or a slowing of the progression of vision loss"}]}
